The target in the experiment is T1, BTK (Homo sapiens, UniProt Q06187).
T1 construct: endogenous in cells; host or cells: TMD-8 cells
The experiment is described as follows: BTK degradation in TMD-8 cells, HTRF assay after 6 h treatment. The experiment is classed as cell-based. Particulars: IC50 (DC50) of BTK degradation. The method, boiled down: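 Remaining BTK was quantified by HTRF in lysates of TMD-8 cells after 6 h exposure to an 8-point, 6-fold compound series (500× stocks in DMSO starting at 1 mM; 0.2% DMSO). Lysis 30 min, antibodies overnight at room temperature, ratio read at 665/620 nm; DC50 fitted with a four-parameter logistic equation.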

This is an account of results in patent publication US20230322761A1, “DEGRADATION OF BRUTON'S TYROSINE KINASE (BTK) BY CONJUGATION OF BTK INHIBITORS WITH E3 LIGASE LIGAND AND METHODS OF USE” (BEIGENE, LTD., priority 2020, published 2023).

By DC50 is commonly meant the midpoint of the concentration-degradation curve. Higher therefore signals a less potent degrader.

Structures are written as SMILES. Some results are limits rather than exact numbers.

T1 sequence (Q06187 whole entry): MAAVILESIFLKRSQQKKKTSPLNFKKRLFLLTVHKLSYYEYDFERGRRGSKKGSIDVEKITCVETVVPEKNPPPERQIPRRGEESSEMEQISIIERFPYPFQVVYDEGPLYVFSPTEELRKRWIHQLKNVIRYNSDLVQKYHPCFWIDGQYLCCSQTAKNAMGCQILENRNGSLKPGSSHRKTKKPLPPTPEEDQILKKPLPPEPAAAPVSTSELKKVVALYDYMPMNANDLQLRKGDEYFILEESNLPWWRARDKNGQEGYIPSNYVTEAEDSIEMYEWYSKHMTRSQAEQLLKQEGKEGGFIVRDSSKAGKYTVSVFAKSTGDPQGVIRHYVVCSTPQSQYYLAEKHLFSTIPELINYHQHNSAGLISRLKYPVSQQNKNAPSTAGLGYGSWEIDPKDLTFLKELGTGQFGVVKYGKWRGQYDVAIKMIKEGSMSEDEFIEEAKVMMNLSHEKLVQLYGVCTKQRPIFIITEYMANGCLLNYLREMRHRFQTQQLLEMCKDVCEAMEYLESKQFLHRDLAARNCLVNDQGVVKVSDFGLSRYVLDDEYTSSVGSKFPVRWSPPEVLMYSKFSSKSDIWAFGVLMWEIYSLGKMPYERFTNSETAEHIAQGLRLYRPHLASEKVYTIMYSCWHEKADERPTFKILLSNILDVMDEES

For `Cc1cc(-c2n[nH]c3ncc(-c4ccc(N5CCN(CCc6ccc(C7CCC(=O)NC7=O)c(F)c6)CC5)nc4)cc23)ccc1[C@@H](C)NC(=O)c1noc(C(C)(C)C)n1` (stereo partly drawn) [Example 199, 5-(tert-butyl)-N-((1R)-1-(4-(5-(6-(4-(4-(2,6-dioxopiperidin-3-yl)-3-fluorophenethyl)piperazin-1-yl)pyridin-3-yl)-1H-pyrazolo[3,4-b]pyridin-3-yl)-2-methylphenyl)ethyl)-1,2,4-oxadiazole-3-carboxamide], the 50% degradation concentration (DC50) turned out to be 5.09 nM. As for `Cc1cc(-c2n[nH]c3ncc(-c4ccc(C5(O)CCN(CC6CCN(c7ccc(N8CCC(=O)NC8=O)cc7)CC6)CC5)cc4)cc23)ccc1[C@@H](C)NC(=O)c1nc(C(C)(C)C)no1` [Example 201, (R)-3-(tert-butyl)-N-(1-(4-(5-(4-(1-((1-(4-(2,4-dioxotetrahydropyrimidin-1(2H)-yl)phenyl)piperidin-4-yl)methyl)-4-hydroxypiperidin-4-yl)phenyl)-1H-pyrazolo[3,4-b]pyridin-3-yl)-2-methylphenyl)ethyl)-1,2,4-oxadiazole-5-carboxamide], the figure is 1.79 nM. The compound `Cc1cc(-c2n[nH]c3ncc(-c4ccc(N5CCCN(CC6CCN(c7ccc(N8CCC(=O)NC8=O)cc7)CC6)CC5)cc4)cc23)ccc1[C@@H](C)NC(=O)c1nc(C(C)(C)C)no1` [Example 202, (R)-3-(tert-butyl)-N-(1-(4-(5-(4-(4-((1-(4-(2,4-dioxotetrahydropyrimidin-1(2H)-yl)phenyl)piperidin-4-yl)methyl)-1,4-diazepan-1-yl)phenyl)-1H-pyrazolo[3,4-b]pyridin-3-yl)-2-methylphenyl)ethyl)-1,2,4-oxadiazole-5-carboxamide] yielded a DC50 of 9.04 nM. As for `Cc1cc(-c2n[nH]c3ncc(-c4ccc(C5(F)CCN(CC6CCN(c7ccc(N8CCC(=O)NC8=O)cc7)CC6)CC5)cc4)cc23)ccc1[C@@H](C)NC(=O)c1nc(C(C)(C)C)no1` [Example 203, (R)-3-(tert-butyl)-N-(1-(4-(5-(4-(1-((1-(4-(2,4-dioxotetrahydropyrimidin-1(2H)-yl)phenyl)piperidin-4-yl)methyl)-4-fluoropiperidin-4-yl)phenyl)-1H-pyrazolo[3,4-b]pyridin-3-yl)-2-methylphenyl)ethyl)-1,2,4-oxadiazole-5-carboxamide], the figure is 5.27 nM; as for `Cc1cc(-c2n[nH]c3ncc(-c4ccc(C5(O)CCN(CC6CCN(c7ccc(N8CCC(=O)NC8=O)cc7)CC6)CC5)cn4)cc23)ccc1[C@@H](C)NC(=O)c1nc(C(C)(C)C)no1` [Example 204, (R)-3-(tert-butyl)-N-(1-(4-(5-(5-(1-((1-(4-(2,4-dioxotetrahydropyrimidin-1(2H)-yl)phenyl)piperidin-4-yl)methyl)-4-hydroxypiperidin-4-yl)pyridin-2-yl)-1H-pyrazolo[3,4-b]pyridin-3-yl)-2-methylphenyl)ethyl)-1,2,4-oxadiazole-5-carboxamide], 2.02 nM. In the case of `Cc1cc(-c2n[nH]c3ncc(-c4ccc(C5(F)CCN(CC6CCN(c7ccc(N8CCC(=O)NC8=O)cc7)CC6)CC5)cn4)cc23)ccc1[C@@H](C)NC(=O)c1nc(C(C)(C)C)no1` [Example 205, (R)-3-(tert-butyl)-N-(1-(4-(5-(5-(1-((1-(4-(2,4-dioxotetrahydropyrimidin-1(2H)-yl)phenyl)piperidin-4-yl)methyl)-4-fluoropiperidin-4-yl)pyridin-2-yl)-1H-pyrazolo[3,4-b]pyridin-3-yl)-2-methylphenyl)ethyl)-1,2,4-oxadiazole-5-carboxamide] it was 0.736 nM. In turn, `Cc1cc(-c2n[nH]c3ncc(-c4ccc(N5CCN(CCc6ccc7c(c6)C[C@]6(CC(=O)NC6=O)C7)CC5)cc4)cc23)ccc1[C@@H](C)NC(=O)c1nc(C(C)(C)C)no1` [Example 206, 3-(tert-butyl)-N—((R)-1-(4-(5-(4-(4-(2-((S)-2′,5′-dioxo-1,3-dihydrospiro[indene-2,3′-pyrrolidin]-5-yl)ethyl)piperazin-1-yl)phenyl)-1H-pyrazolo[3,4-b]pyridin-3-yl)-2-methylphenyl)ethyl)-1,2,4-oxadiazole-5-carboxamide] gave a DC50 above 2000 nM.

The compound `Cc1cc(-c2n[nH]c3ncc(-c4ccc(N5CCN(CCc6ccc7c(c6)C[C@@]6(CC(=O)NC6=O)C7)CC5)cc4)cc23)ccc1[C@@H](C)NC(=O)c1nc(C(C)(C)C)no1` [Example 207, 3-(tert-butyl)-N—((R)-1-(4-(5-(4-(4-(2-((R)-2′,5′-dioxo-1,3-dihydrospiro[indene-2,3′-pyrrolidin]-5-yl)ethyl)piperazin-1-yl)phenyl)-1H-pyrazolo[3,4-b]pyridin-3-yl)-2-methylphenyl)ethyl)-1,2,4-oxadiazole-5-carboxamide] registered a DC50 of 54 nM. In the case of `Cc1cc(-c2n[nH]c3ncc(-c4ccc(N5CCN(C6CC(c7ccc([C@@H]8CCC(=O)NC8=O)cc7)C6)CC5)cc4)cc23)ccc1[C@@H](C)NC(=O)c1noc(C(C)(C)C)n1` (stereo partly drawn) [Example 208, 5-(tert-butyl)-N—((R)-1-(4-(5-(4-(4-((1S,3s)-3-(4-((R)-2,6-dioxopiperidin-3-yl)phenyl)cyclobutyl)piperazin-1-yl)phenyl)-1H-pyrazolo[3,4-b]pyridin-3-yl)-2-methylphenyl)ethyl)-1,2,4-oxadiazole-3-carboxamide] it was 2.08 nM. As for `Cc1cc(-c2n[nH]c3ncc(-c4ccc(N5CCN(C6CC(c7ccc([C@@H]8CCC(=O)NC8=O)cc7)C6)CC5)cc4)cc23)ccc1[C@@H](C)NC(=O)c1noc(C(C)(C)C)n1` (stereo partly drawn) [Example 209, 5-(tert-butyl)-N—((R)-1-(4-(5-(4-(4-((1R,3s)-3-(4-((S)-2,6-dioxopiperidin-3-yl)phenyl)cyclobutyl)piperazin-1-yl)phenyl)-1H-pyrazolo[3,4-b]pyridin-3-yl)-2-methylphenyl)ethyl)-1,2,4-oxadiazole-3-carboxamide], the figure is 13.6 nM. Regarding `Cc1cc(-c2n[nH]c3ncc(-c4ccc(C5(C)CCN(CC6CCN(c7ccc(N8CCC(=O)NC8=O)cc7)CC6)CC5)cc4)cc23)ccc1[C@@H](C)NC(=O)c1noc(C(C)(C)C)n1` [Example 210, (R)-5-(tert-butyl)-N-(1-(4-(5-(4-(1-((1-(4-(2,4-dioxotetrahydropyrimidin-1(2H)-yl)phenyl)piperidin-4-yl)methyl)-4-methylpiperidin-4-yl)phenyl)-1H-pyrazolo[3,4-b]pyridin-3-yl)-2-methylphenyl)ethyl)-1,2,4-oxadiazole-3-carboxamide], half-maximal degradation (DC50) was put at 5.98 nM.

Compound `Cc1cc(-c2n[nH]c3ncc(-c4ccc(C5(C)CCN(C6CC(c7ccc(C8CCC(=O)NC8=O)cc7)C6)CC5)cc4)cc23)ccc1[C@@H](C)NC(=O)c1noc(C(C)(C)C)n1` (stereo partly drawn) [Example 211, 5-(tert-butyl)-N-((1R)-1-(4-(5-(4-(1-(3-(4-(2,6-dioxopiperidin-3-yl)phenyl)cyclobutyl)-4-methylpiperidin-4-yl)phenyl)-1H-pyrazolo[3,4-b]pyridin-3-yl)-2-methylphenyl)ethyl)-1,2,4-oxadiazole-3-carboxamide] gave a DC50 of 13.5 nM. As for `Cc1cc(-c2n[nH]c3ncc(-c4ccc(N5CC6(CN(CC7CCN(c8ccc(N9CCC(=O)NC9=O)cc8)CC7)C6)C5)cc4)cc23)ccc1[C@@H](C)NC(=O)c1nc(C(C)(C)C)no1` [Example 212, (R)-3-(tert-butyl)-N-(1-(4-(5-(4-(6-((1-(4-(2,4-dioxotetrahydropyrimidin-1(2H)-yl)phenyl)piperidin-4-yl)methyl)-2,6-diazaspiro[3.3]heptan-2-yl)phenyl)-1H-pyrazolo[3,4-b]pyridin-3-yl)-2-methylphenyl)ethyl)-1,2,4-oxadiazole-5-carboxamide], the figure is 1.95 nM.
